≈ marks a conversion by molar mass, not a printed value.
Tests used:
[1] = MTT cytotoxicity assay on Vero cells; settings: African green monkey
[2] = test system: S. enterica serovar Typhimurium 14028s; test: Biofilm formation assay with crystal violet; assay type: cell-based, Salmonella enterica serovar Typhimurium; settings: Salmonella enterica, compound at 50 μM, 48 h
Experimental: (§1) The biofilm-forming ability of S. Typhimurium and S. aureus ATCC strains was studied in 96-well microtiter plates, using Luria-Bertani (LB) broth without salt (S. Typhimurium) or tryptic soy broth TSB (S. aureus) in the presence of selenocompounds. Initially, overnight cultures were diluted to an optical density (OD) of 0.1 at 600 nm and then added to each well, with the exception of the medium control wells and compounds were added individually at ½ MIC. The final volume was 200 μL in each well. Plates were incubated at 30 °C, for 48 h, with gentle agitation (100 rpm). After the incubation period, the medium was discarded, and the plate was washed with tap water, to remove unattached cells. Then, 200 μL of crystal violet (CV; 0.1% [v/v]) was added to the wells and incubated for 15 min at room temperature. CV was removed from the wells, and the plate was washed again with tap water. Then, 200 μL of 70% ethanol was added to each well, and the biofilm formation was determined by measuring the OD at 600 nm, using a FLUOstar Optima plate reader (BMG Labtech, Aylesbury, UK). The antibiofilm effect of selenocompounds was expressed in the percentage (%) decrease in biofilm formation. The assay was repeated a minimum of three times. The results were analyzed by using the t-test and p-values of <0.05 were considered significant.

HSV-2 = test: Anti-HSV-2 activity by qPCR in infected Vero cells; settings: for minimal effective concentration: Human alphaherpesvirus 2, Vero, 24 h, read-out: lowest concentration with (significant) antiviral activity against HSV-2, Vero cells infected with HSV-2, MOI 0.01, qPCR after 24 h; for antiviral activity at x-fold lower concentration than acyclovir: compared with acyclovir
S. aureus ATCC 25923 [3] = test: Antibiofilm effect in combination with ciprofloxacin; assay type: cell-based, Staphylococcus aureus; settings: CIP at 1.6 µM, compound at ½ MIC
Experimental: (§2) […]; 4, 5, 7, 8 and 9 for S. Typhimurium).
(§3) […]. The effect was determined by two-fold broth microdilution method in 96-well plates, using serial dilutions of TET and CIP. The first four rows contained two-fold dilutions of antibiotics, and combinations of the antibiotics and tested compounds were added into the last four rows. The overnight bacterial cultures were diluted to an OD of 0.1 at 600 nm and then added to each well, in 50 μL LB, without salt or TSB, with the exception of the medium control wells. The plates were then incubated at 30 °C, for 48 h, with gentle agitation (100 rpm), and the biofilm formation was determined by measuring the OD at 600 nm, using a FLUOstar Optima plate reader. The antibiofilm effect of antibiotic alone and in combination with selenocompounds was expressed in the percentage (%) of decrease in biofilm formation. The results were analyzed by using the t-test and p-values of <0.05 were considered significant.

S. aureus ATCC 25923 [4] = test: Biofilm formation assay with crystal violet; assay type: cell-based; settings: Staphylococcus aureus, ATCC25923, 48 h; for inhibition at 50 µM: compound at 50 μM
Experimental: as §1

[5] = test system: S. enterica serovar Typhimurium 14028s; test: Antibiofilm effect in combination with tetracycline; assay type: cell-based, Salmonella enterica serovar Typhimurium; settings: compound at ½ MIC; for effect on the antibiofilm activity of TET compared to TET alone: 2.5 µM of TET; for antibiofilm effect in the presence of TET: 1.25 µM of TET
Experimental: as §2, §3

[6] = test system: selected pathogenic yeasts; test: Antifungal disk-diffusion screening, overall statement on all evaluated strains; settings: 200 µM and 10 mM on disk
Experimental: (§6) Disk diffusion. The antifungal activity of the selenocompounds against selected pathogenic yeasts were screened, measuring their inhibition zones [49]. Solutions of the selenocompounds were set at two concentrations: 200 µM (from a 10 mM stock solution) and 10 mM. The sterile filter paper discs (diameter (D) 6 mm) impregnated with the solutions (10 µL of solutions) were placed on Saboraud Dextrose Agar (SDA), inoculated with the respective suspensions of yeasts (inocula of 0.5 McFarland’s standard). The solvent (DMSO) served as negative control, and an additional plate was inoculated without disks, to serve as growth control. The inocula were used within 15 min of preparation, the disks were applied within 15 min of inoculating the plates, and incubation started within 15 min of application of the disks (according to EUCAST standards). The plates were then incubated for 72 h, under aerobic conditions, at 37 °C. Inhibition zone diameters generated by the tested compounds (including the diameter of the disc) were measured. All experiments were performed in triplicate.

[7] = test system: Candida tropicalis ATCC 13803; test: Antifungal disk-diffusion; settings: ATCC13803, 72 h, read-out: Inhibition Zone Diameter
Experimental: as §6

[8] = test system: Candida krusei ATCC 14243; test: Antifungal broth microdilution MIC; assay type: cell-based; settings: Pichia kudriavzevii, ATCC14243, read-out: Minimal inhibitory concentration
Experimental: (§4) This MIC values were calculated by using the broth microdilution method (Table 3).
(§5) Broth microdilution method. […] Determination of the MIC values was performed by using the broth microdilution method, according to EUCAST standards.

[9] = test system: Candida albicans ATCC 10231; test: Antifungal broth microdilution MIC; assay type: cell-based; settings: ATCC10231, read-out: Minimal inhibitory concentration
Experimental: as §4, §5

[10] = test system: Cryptococcus diffluens ATCC 32059; test: Antifungal broth microdilution MIC; assay type: cell-based; settings: Naganishia diffluens, ATCC32059, read-out: Minimal inhibitory concentration
Experimental: as §4, §5

[11] = test system: Candida parapsilosis ATCC 22019; test: Antifungal broth microdilution MIC; assay type: cell-based; settings: Lodderomyces parapsilosis, ATCC22019, read-out: Minimal inhibitory concentration
Experimental: as §4, §5

[12] = test system: Candida krusei ATCC 14243; test: Antifungal disk-diffusion; settings: Pichia kudriavzevii, ATCC14243, 72 h; for zone of inhibition at 200 µM: read-out: Inhibition Zone Diameter, 200 µM on disk, 72 h; for zone of inhibition at 10000 µM: read-out: Inhibition Zone Diameter, 10 mM on disk, 72 h
Experimental: as §6

[13] = test system: Candida glabrata ATCC 36909; test: Antifungal disk-diffusion; settings: Nakaseomyces glabratus, ATCC36909, 72 h; for zone of inhibition at 10000 µM: read-out: Inhibition Zone Diameter, 10 mM on disk, 72 h; for zone of inhibition at 200 µM: read-out: Inhibition Zone Diameter, 200 µM on disk, 72 h
Experimental: as §6

[14] = test system: Candida albicans ATCC 10231; test: Antifungal disk-diffusion; settings: ATCC10231, 72 h, read-out: Inhibition Zone Diameter
Experimental: as §6

[15] = test system: Candida parapsilosis ATCC 22019; test: Antifungal disk-diffusion; settings: Lodderomyces parapsilosis, ATCC22019, 72 h, read-out: Inhibition Zone Diameter
Experimental: as §6

[16] = test system: Cryptococcus diffluens ATCC 32059; test: Antifungal disk-diffusion; settings: Naganishia diffluens, ATCC32059, 72 h, read-out: Inhibition Zone Diameter
Experimental: as §6

[17] = test system: Candida albicans ATCC 10231; settings: reference, range calculated from data in bibliography; cited from earlier work
[18] = test system: Candida krusei ATCC 14243; settings: reference, range calculated from data in bibliography; cited from earlier work
[19] = test system: Candida parapsilosis ATCC 22019; settings: reference, range calculated from data in bibliography; cited from earlier work
[20] = Vero cells infected with HSV-2, qPCR

SMILES | IC50 at 24 h [1] | inhibition at 50 µM [2] | minimal effective concentration (HSV-2) | inhibition at 50 µM (S. aureus ATCC 25923 [4]) | effect on the antibiofilm activity of TET compared to TET alone [5] | antiviral activity at concentration x-fold lower than the cytotoxic concentration (IC50 in Vero cells) (HSV-2) | MIC [8] | MIC [9] | MIC [10] | MIC [11] | zone of inhibition at 10000 µM [12] | zone of inhibition at 10000 µM [13] | zone of inhibition at 10000 µM [14] | zone of inhibition at 10000 µM [15] | also measured
C[Se]C(=O)c1cccc(C(=O)[Se]C)n1 [Compound 3] | > 100 µM | > 50% | 10 µM |  |  |  |  |  |  |  |  |  |  |  | 
COC(=O)C[Se]C(=O)c1ccc(Cl)cc1 [Compound 7] | > 100 µM |  | 12.5 µM | > 70% | significantly reduced the activity of the antibiotic | 8 fold |  |  |  |  |  |  |  |  | effect on the antibiofilm activity of CIP (S. aureus ATCC 25923 [3]): significantly increased the activity of CIP; antifungal activity in the disk-diffusion assay (in words) [6]: did not show antifungal activity; concentration at which replication of HSV-2 was completely inhibited (HSV-2; [20]): 50 µM
CC(C)(C)C(=O)C[Se]C(=O)c1ccc(Cl)cc1 [Compound 10] | 45 µM |  | 5 µM |  |  | 9 fold | 50 µM (≈ 15.9 µg/mL) | > 200 µM | > 200 µM | > 200 µM | > 30 mm | 25 mm | > 30 mm | > 30 mm | inhibition at 10 µM (S. aureus ATCC 25923 [4]; compound at 10 μM): > 70%; zone of inhibition at 10000 µM [7]: 16 mm; zone of inhibition at 200 µM [12]: 14 mm; zone of inhibition at 200 µM [15]: 2 mm; antiviral activity at x-fold lower concentration than acyclovir (HSV-2): 8 fold
C[Se]C(=O)c1ccc(C(=O)[Se]C)s1 [Compound 2] | > 100 µM | > 50% |  |  |  |  |  |  |  |  |  |  |  |  | antiviral activity against HSV-2 (in words) (HSV-2; [20]): did not reduce the number of HSV-2
C[Se]C(=O)c1cccc(C(=O)[Se]C)c1 [Compound 4] | > 100 µM | 75% |  |  |  |  |  |  |  |  |  |  |  |  | antibiofilm effect in the presence of TET [5]: significantly higher antibiofilm effects; antiviral activity against HSV-2 (in words) (HSV-2; [20]): did not reduce the number of HSV-2
C[Se]C(=O)c1ccc(C(=O)[Se]C)cc1 [Compound 5] | > 100 µM | 73% |  |  | significantly reduced the activity of the antibiotic |  |  |  |  |  |  |  |  |  | antiviral activity against HSV-2 (in words) (HSV-2; [20]): did not reduce the number of HSV-2
Nc1nc2c(ncn2COCCO)c(=O)[nH]1 [acyclovir, reference compound] |  |  | 10 µM |  |  |  |  |  |  |  |  |  |  |  | complete inhibition of HSV-2 replication (HSV-2; examined concentrations 1.25–2500 μM): could not inhibit the replication of HSV-2 completely
O=C(C[Se]C(=O)c1ccccc1)Oc1ccccc1 [Compound 8] | > 100 µM |  | 12.5 µM | > 70% | significantly reduced the activity of the antibiotic | 8 fold |  |  |  |  |  |  |  |  | antibiofilm effect in the presence of TET [5]: significantly higher antibiofilm effects
COc1cc(OC)cc(C(=O)[Se]CC(=O)C(C)(C)C)c1 [Compound 11] | 39 µM |  | 1.25 µM |  |  | 31 fold | > 200 µM | > 200 µM | 100 µM (≈ 34.3 µg/mL) | 100 µM (≈ 34.3 µg/mL) | 12 mm | 18 mm | 19 mm | > 30 mm | effect on the antibiofilm activity of CIP (S. aureus ATCC 25923 [3]): significantly increased the activity of CIP; inhibition at 25 µM (S. aureus ATCC 25923 [4]; compound at 25 μM): > 70%; zone of inhibition at 200 µM [16]: 10 mm; zone of inhibition at 10000 µM [16]: 18 mm; zone of inhibition at 200 µM [15]: 14 mm; antiviral activity at x-fold lower concentration than acyclovir (HSV-2): 4 fold
CC[C@H](C)C[C@H](C)CCCCCCCCC(=O)N[C@H]1C[C@@H](O)[C@@H](NCCN)NC(=O)[C@@H]2[C@@H](O)CCN2C(=O)[C@H]([C@H](O)CCN)NC(=O)[C@H]([C@H](O)[C@@H](O)c2ccc(O)cc2)NC(=O)[C@@H]2C[C@@H](O)CN2C(=O)[C@H]([C@@H](C)O)NC1=O [CSP, caspofungin] |  |  |  |  |  |  |  |  |  |  |  |  |  |  | Minimal inhibitory concentration [17]: ≤0.007 to 0.110 µM; Minimal inhibitory concentration [18]: 0.055 to 0.229 µM; Minimal inhibitory concentration [19]: 0.110 to 1.83 µM
CC(=O)C[Se]C(=O)c1ccc(Cl)cc1 [Compound 9] | 31 µM |  |  |  | significantly reduced the activity of the antibiotic |  | 50 µM (≈ 13.8 µg/mL) | > 200 µM | 100 µM (≈ 27.6 µg/mL) | > 200 µM | > 30 mm | > 30 mm | > 30 mm | > 30 mm | zone of inhibition at 200 µM [7]: 2 mm; zone of inhibition at 10000 µM [7]: 25 mm; antibiofilm effect in the presence of TET [5]: significantly higher antibiofilm effects; zone of inhibition at 200 µM [16]: 12 mm; zone of inhibition at 10000 µM [16]: 29 mm; zone of inhibition at 200 µM [12]: 19 mm; zone of inhibition at 200 µM [13]: 6 mm; zone of inhibition at 200 µM [15]: 4 mm
O=C1[Se]C(=O)c2ccccc21 [Compound 1] | > 100 µM |  | 12.5 µM | > 70% |  | 8 fold | 100 µM (≈ 21.1 µg/mL) | 50 µM (≈ 10.6 µg/mL) | > 200 µM | > 200 µM | > 30 mm | 13 mm | > 30 mm | 6 mm | zone of inhibition at 200 µM [7]: 3 mm; zone of inhibition at 10000 µM [7]: > 30 mm; zone of inhibition at 200 µM [12]: 11 mm; zone of inhibition at 200 µM [13]: 2 mm; zone of inhibition at 200 µM [14]: 14 mm
NC(=O)C[Se]C(=O)c1ccccc1 [Compound 6] | > 100 µM |  | 25 µM | > 70% |  | 2 fold |  |  |  |  |  | < 10 mm |  |  | 
